Legend:
[1] = molecular target: T1, NAD-dependent protein deacetylase sirtuin-2 (Homo sapiens, UniProt Q8IXJ6)
T1 sequence (Q8IXJ6 whole entry): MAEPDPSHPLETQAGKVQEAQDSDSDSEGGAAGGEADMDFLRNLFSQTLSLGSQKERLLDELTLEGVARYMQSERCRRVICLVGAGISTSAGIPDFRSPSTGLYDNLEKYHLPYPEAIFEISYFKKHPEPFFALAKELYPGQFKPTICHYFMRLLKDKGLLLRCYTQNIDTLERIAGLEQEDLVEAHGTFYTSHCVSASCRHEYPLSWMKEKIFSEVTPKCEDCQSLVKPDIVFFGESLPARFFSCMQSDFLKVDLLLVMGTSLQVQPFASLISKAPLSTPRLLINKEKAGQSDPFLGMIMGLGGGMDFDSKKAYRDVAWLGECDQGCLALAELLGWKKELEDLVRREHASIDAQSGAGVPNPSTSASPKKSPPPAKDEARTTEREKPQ
Description: Inhibition of recombinant human N-terminal His6-tagged SIRT-2 using ZMAL as substrate after 4 hrs by homogeneous fluorescent deacetylase assay

[2] = molecular target: T1, NAD-dependent protein deacetylase sirtuin-2; assay: Inhibition of human SIRT-2 using fluor de Lys as substrate after 2 hrs by fluorescence assay
[3] = Growth inhibition of human KYSE-150 cells after 48 hrs; type: functional; settings: KYSE-150, 48 h
[4] = Inhibition of yeast Sir2p HAD activity using [3H]-acetylated histone H4 as substrate assessed as release of free [3H]-acetate after 16 hrs; set-up: species or system Saccharomyces cerevisiae
[5] = molecular target: Protein arginine N-methyltransferase 1 (Homo sapiens, UniProt Q99873); assay: Inhibition of human recombinant PRMT-1 using Npl3p as substrate
Homo sapiens [6] = species on record: Homo sapiens; assay: Selectivity ratio of IC50 for human CARM-1 to IC50 for human recombinant PRMT-1
Homo sapiens [7] = species on record: Homo sapiens; assay: Selectivity ratio of IC50 for SET7 (unknown origin) to IC50 for human recombinant PRMT-2
Histone deacetylase 1 = Histone deacetylase 1 (Homo sapiens, UniProt Q13547)
Description: Inhibition of HDAC-1 (unknown origin) using (FAM)-labeled acetylated peptide as substrate after 17 hrs by fluorescence assay

[8] = molecular target: T2, Histone acetyltransferase p300 (Homo sapiens, UniProt Q09472)
Description: (§1) Inhibition of His6-tagged recombinant full length p300 (unknown origin) expressed in baculovirus infected insect Sf21 cells using [3H]acetyl-CoA as substrate preincubated for 10 mins followed by substrate addition measured after 10 mins by liquid scintillation counting analysis

[9] = molecular target: T1, NAD-dependent protein deacetylase sirtuin-2; assay: Inhibition of SIRT-2 (unknown origin)
[10] = molecular target: T3, Histone-arginine methyltransferase CARM1 (Homo sapiens, UniProt Q86X55); assay: Inhibition of full-length GST-tagged CARM-1 (unknown origin) expressed in Spodoptera frugiperda cells using histone H3 and tritiated-SAM as substrate
T3 sequence (Q86X55 whole entry): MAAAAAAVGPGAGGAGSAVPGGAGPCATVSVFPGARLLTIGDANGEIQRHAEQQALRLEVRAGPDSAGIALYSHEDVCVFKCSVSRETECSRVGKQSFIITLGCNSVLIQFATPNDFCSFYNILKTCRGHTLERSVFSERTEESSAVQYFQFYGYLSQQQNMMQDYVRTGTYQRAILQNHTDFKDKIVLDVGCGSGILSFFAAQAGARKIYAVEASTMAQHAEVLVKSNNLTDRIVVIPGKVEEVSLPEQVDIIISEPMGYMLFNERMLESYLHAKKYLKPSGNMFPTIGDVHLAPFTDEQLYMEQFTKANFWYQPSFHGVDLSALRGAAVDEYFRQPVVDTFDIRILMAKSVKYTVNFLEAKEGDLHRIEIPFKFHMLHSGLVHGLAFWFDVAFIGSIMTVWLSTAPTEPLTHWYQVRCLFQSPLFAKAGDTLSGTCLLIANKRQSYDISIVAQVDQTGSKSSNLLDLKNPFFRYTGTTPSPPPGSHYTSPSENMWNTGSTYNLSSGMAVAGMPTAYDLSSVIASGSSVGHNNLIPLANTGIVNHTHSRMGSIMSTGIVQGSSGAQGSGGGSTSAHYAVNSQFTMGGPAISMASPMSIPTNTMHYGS

[11] = molecular target: T2, Histone acetyltransferase p300; assay: Inhibition of p300 (unknown origin)
[12] = molecular target: T3, Histone-arginine methyltransferase CARM1; assay: Inhibition of CARM-1 (unknown origin) using Histone H3 Arg-17 as substrate
Saccharomyces cerevisiae = assay: Selectivity for yeast Sir2p over yeast Hst1p
[13] = molecular target: Lysine-specific demethylase 2A (Homo sapiens, UniProt Q9Y2K7); assay: Inhibition of FBXL11 (unknown origin) expressed in HEK293 cells; type: cell-based
Egl nine homolog 1 = Egl nine homolog 1 (Homo sapiens, UniProt Q9GZT9); assay: Inhibition of PHD-2 (unknown origin)
[14] = molecular target: T4, Lysine-specific demethylase 4E (Homo sapiens, UniProt B2RXH2); assay: Binding affinity to JMJD2E (unknown origin)
T4 sequence (B2RXH2 whole entry): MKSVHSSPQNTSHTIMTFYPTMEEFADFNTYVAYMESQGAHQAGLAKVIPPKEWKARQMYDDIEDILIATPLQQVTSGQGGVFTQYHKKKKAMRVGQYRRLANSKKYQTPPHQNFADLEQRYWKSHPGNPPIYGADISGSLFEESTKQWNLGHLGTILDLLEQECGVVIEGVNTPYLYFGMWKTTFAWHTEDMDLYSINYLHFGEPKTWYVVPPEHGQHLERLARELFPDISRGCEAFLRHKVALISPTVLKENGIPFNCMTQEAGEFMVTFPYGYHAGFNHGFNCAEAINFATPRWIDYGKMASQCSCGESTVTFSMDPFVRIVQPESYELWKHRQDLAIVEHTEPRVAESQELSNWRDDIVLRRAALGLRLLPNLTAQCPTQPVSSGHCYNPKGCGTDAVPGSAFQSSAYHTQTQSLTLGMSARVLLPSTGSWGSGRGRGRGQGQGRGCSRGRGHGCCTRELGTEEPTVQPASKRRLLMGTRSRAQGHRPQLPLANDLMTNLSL

Histone deacetylase = assay: Inhibition of HDAC isolated from human HeLa cell nuclear extracts using Fluor de Lys as substrate after 30 mins by fluorescence assay; type: protein assay
[15] = Inhibition of HAT isolated from human HeLa cell nuclear extracts using biotinylated histone H4 peptide as substrate after 8 mins
CREB-binding protein = CREB-binding protein (Homo sapiens, UniProt Q92793); assay: Inhibition of CBP (unknown origin)
[16] = molecular target: Histone acetyltransferase KAT2A (Homo sapiens, UniProt Q92830); assay: Inhibition of human GCN5
[17] = molecular target: NAD-dependent protein deacetylase sirtuin-1 (Homo sapiens, UniProt Q96EB6); assay: Inhibition of recombinant human GST-tagged SIRT-1 using ZMAL as substrate after 4 hrs by homogeneous fluorescent deacetylase assay
[18] = molecular target: Histone acetyltransferase KAT2B (Homo sapiens, UniProt Q92831); assay: Inhibition of FLAG epitope-tagged recombinant human PCAF expressed in baculovirus infected insect Sf21 cells using [3H]acetyl-CoA as substrate preincubated for 10 mins followed by substrate addition measured after 10 mins by liquid scintillation counting analysis
[19] = molecular target: T2, Histone acetyltransferase p300; assay: biochemical
Description: as §1

[20] = molecular target: Lysine-specific histone demethylase 1A (Homo sapiens, UniProt O60341); assay: Inhibition of LSD-1 (unknown origin)
Homo sapiens [21] = species on record: Homo sapiens; assay: Selectivity ratio of IC50 for MAO-B (unknown origin) to IC50 for LSD-1 (unknown origin)

T2 sequence (Q09472 whole entry): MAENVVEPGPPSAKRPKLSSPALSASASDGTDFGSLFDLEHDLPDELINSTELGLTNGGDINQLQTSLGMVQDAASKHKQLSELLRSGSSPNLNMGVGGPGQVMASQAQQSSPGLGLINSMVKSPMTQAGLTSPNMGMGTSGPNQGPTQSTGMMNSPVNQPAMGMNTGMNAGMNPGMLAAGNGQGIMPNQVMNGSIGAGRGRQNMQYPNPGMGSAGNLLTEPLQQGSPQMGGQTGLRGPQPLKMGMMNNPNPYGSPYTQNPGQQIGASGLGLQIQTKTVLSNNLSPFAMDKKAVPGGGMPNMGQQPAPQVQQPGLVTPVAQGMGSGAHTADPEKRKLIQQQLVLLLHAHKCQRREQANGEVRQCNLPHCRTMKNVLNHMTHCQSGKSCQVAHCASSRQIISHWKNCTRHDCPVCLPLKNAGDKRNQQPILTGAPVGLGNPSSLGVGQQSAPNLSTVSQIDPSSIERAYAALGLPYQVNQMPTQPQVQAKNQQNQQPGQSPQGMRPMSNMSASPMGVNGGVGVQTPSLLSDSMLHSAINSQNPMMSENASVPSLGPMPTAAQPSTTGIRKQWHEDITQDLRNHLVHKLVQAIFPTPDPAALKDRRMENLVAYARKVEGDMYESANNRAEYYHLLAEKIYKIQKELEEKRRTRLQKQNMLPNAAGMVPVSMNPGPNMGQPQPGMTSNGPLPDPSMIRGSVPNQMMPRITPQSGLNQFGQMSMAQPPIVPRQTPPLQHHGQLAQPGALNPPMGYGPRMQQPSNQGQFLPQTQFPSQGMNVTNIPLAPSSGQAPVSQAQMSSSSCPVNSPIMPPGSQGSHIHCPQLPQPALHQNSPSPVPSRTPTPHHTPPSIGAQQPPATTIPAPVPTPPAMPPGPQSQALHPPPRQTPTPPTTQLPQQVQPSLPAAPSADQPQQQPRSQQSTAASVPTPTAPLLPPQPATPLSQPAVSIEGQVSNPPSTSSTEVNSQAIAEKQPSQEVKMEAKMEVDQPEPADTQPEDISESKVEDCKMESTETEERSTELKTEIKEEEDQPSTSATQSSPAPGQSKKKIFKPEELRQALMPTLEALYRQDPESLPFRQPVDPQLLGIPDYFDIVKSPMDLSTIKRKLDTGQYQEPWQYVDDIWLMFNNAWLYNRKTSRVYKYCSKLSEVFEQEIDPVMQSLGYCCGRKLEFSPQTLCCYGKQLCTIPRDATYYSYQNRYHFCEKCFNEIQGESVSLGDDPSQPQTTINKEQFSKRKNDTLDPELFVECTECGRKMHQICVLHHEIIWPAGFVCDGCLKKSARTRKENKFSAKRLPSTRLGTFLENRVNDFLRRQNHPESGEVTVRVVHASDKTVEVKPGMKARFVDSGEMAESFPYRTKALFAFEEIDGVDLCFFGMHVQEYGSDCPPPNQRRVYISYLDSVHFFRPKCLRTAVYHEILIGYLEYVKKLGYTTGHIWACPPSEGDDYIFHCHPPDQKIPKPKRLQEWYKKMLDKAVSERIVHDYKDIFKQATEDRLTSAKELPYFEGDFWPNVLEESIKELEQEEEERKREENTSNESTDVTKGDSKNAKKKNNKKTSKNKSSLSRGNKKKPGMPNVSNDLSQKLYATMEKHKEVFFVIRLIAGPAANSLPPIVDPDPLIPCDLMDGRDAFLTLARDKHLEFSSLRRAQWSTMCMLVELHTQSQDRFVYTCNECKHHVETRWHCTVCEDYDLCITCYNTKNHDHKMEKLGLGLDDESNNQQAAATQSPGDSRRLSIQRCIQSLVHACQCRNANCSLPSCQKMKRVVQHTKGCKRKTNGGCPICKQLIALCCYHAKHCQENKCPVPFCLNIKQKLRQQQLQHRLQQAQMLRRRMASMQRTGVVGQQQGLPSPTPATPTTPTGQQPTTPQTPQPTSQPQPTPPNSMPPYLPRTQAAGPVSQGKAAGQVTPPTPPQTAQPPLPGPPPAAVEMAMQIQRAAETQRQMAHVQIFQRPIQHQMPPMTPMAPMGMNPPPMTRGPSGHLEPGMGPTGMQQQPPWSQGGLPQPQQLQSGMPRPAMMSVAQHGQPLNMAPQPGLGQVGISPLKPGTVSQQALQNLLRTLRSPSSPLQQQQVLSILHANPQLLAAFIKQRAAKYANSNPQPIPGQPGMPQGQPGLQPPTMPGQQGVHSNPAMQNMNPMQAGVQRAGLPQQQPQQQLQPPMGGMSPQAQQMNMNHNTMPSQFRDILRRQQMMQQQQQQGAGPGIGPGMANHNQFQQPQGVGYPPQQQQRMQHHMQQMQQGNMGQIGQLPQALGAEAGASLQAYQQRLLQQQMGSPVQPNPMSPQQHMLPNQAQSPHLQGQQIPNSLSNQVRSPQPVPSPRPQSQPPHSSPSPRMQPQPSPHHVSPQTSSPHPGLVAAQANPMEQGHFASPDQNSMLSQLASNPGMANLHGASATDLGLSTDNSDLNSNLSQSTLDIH
Histone acetyltransferase KAT2A, sequence (Q92830 whole entry): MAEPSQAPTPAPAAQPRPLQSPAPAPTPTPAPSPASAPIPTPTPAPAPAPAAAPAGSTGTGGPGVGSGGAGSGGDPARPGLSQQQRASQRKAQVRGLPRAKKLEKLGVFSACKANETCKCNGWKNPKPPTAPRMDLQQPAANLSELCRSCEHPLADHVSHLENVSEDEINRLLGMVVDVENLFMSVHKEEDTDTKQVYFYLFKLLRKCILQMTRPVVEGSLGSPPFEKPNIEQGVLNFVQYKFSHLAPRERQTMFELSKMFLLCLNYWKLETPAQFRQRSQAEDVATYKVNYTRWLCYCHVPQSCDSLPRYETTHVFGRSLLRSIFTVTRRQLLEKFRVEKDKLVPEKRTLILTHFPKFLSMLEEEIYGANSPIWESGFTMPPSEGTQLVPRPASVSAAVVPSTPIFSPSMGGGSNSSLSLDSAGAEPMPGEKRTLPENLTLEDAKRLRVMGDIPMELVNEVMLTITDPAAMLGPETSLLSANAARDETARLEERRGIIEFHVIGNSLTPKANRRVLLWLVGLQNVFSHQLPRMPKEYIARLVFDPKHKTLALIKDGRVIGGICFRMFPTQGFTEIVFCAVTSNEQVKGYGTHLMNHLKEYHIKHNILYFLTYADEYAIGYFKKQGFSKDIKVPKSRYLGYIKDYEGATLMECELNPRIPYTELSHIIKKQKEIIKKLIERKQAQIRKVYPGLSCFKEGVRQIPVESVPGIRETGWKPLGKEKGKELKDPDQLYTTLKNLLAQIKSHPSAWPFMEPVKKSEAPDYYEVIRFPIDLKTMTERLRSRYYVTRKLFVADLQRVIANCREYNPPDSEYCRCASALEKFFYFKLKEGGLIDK
NAD-dependent protein deacetylase sirtuin-1, sequence (Q96EB6 whole entry): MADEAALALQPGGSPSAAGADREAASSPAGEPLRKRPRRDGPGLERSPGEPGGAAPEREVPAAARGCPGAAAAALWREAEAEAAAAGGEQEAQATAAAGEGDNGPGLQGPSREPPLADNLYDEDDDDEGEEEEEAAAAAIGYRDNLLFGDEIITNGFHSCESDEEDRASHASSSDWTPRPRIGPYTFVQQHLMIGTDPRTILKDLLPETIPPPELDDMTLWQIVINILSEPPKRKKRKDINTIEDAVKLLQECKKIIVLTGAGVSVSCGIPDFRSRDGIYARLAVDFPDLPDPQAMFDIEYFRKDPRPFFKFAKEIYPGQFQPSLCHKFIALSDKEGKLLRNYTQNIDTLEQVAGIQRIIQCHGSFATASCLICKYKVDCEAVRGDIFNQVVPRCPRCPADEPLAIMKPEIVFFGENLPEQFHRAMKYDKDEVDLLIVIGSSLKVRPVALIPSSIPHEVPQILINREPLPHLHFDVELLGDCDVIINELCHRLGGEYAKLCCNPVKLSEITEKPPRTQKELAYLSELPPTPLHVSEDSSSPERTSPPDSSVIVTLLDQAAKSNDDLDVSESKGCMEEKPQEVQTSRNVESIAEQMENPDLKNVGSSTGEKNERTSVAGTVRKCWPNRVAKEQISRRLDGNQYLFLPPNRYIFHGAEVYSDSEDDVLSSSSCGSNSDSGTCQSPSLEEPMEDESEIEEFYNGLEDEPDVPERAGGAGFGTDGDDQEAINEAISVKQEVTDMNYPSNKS
Protein arginine N-methyltransferase 1, sequence (Q99873 whole entry): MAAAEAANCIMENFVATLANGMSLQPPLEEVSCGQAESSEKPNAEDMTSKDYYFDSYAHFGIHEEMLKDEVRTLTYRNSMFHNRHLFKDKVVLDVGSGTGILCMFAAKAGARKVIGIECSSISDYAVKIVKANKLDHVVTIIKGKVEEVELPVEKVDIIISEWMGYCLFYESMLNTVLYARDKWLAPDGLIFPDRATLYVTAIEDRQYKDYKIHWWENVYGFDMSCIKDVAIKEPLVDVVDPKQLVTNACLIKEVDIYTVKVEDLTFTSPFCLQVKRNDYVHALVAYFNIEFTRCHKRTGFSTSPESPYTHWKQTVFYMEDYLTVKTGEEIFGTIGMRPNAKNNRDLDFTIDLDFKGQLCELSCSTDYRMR
Histone deacetylase 1, sequence (Q13547 whole entry): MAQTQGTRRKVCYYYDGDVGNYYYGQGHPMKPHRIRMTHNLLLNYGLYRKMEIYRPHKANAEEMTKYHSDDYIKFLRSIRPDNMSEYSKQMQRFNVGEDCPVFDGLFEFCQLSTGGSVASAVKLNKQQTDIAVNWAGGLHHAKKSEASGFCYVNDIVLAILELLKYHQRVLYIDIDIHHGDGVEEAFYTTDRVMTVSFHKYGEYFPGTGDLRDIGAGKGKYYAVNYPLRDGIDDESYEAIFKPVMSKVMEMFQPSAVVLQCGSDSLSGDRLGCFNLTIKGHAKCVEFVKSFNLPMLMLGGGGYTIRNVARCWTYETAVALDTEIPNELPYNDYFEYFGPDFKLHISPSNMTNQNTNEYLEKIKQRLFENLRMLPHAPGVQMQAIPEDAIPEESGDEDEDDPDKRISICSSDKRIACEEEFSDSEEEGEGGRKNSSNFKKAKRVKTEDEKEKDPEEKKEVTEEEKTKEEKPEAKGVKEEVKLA

## CCCCCCCCCCC[C@]1(CO)CCCC(=O)O[C@](CO)(CCCCCCCCCCC)CCCC(=O)O1
[1]
  IC50: 2000 nM
[2]
  IC50: 176 nM

## COC(=O)/C=C/C(=O)N(O)CCCCNCc1ccc(COC(=O)Nc2cccc3ccccc23)cc1
[3]
  GI50: 5.1 µM

## O=C1CCc2c(ccc3ccccc23)O1 [SPLITOMICIN]
[4]
  IC50: 60 µM

## O=C(/C=C/c1ccc(O)c(Br)c1)/C=C/c1cc(Br)c(O)c(Br)c1
[5]
  IC50: 3 µM
Homo sapiens [6]
  Ratio IC50: 30
Homo sapiens [7]
  Ratio IC50: 10

## Nc1ccccc1NC(=O)CCCCCCC(=O)Nc1cccc(-c2cn(-c3ccccc3)nn2)c1
Histone deacetylase 1
  IC50: > 30 µM

## C=C(C)[C@@H](CC=C(C)C)C[C@@]12C[C@@H](CC=C(C)C)C(C)(C)[C@@](CC=C(C)C)(C(=O)C(C(=O)c3ccc(O)c(O)c3)=C1O)C2=O [GARCINOL]
[8]
  IC50: 7 µM

## NC(=O)c1ccccc1Nc1ccccc1 [ANILINOBENZAMIDE]
[9]
  IC50: 74 µM

## C[C@H](N)C(=O)NCc1cccc(-n2nc(C(F)(F)F)cc2-c2nnc(-c3cccc4[nH]ccc34)o2)c1
[10]
  IC50: 27 nM

## CC(=O)N[C@@H](CCCCNC(=O)CSCCNC(=O)CCNC(=O)[C@H](O)C(C)(C)COP(=O)(O)OP(=O)(O)OC[C@H]1O[C@@H](n2cnc3c(N)ncnc32)[C@H](O)[C@@H]1OP(=O)(O)O)C(N)=O
[11]
  Ki: 19 nM

## O=c1oc2c(O)c(O)cc3c(=O)oc4c(O)c(O)cc1c4c23 [ELLAGIC ACID]
[12]
  IC50: 25 µM

## O=C1CCc2c(c(OCc3ccccc3)cc3ccccc23)O1
Saccharomyces cerevisiae
  Selectivity ratio: 13

## [N-]=[N+]=Nc1ccc(C(=O)N[C@@H](CCCCNC(=O)COCCOCCNC(=O)CCCC[C@@H]2SC[C@@H]3NC(=O)N[C@@H]32)C(=O)NCCCNC(=O)c2ccc(O)c3ncccc23)cc1
[13]
  IC50: 9.1 µM
Egl nine homolog 1
  IC50: 41.8 µM
[14]
  Kd: 58.4 µM

## O=C(CSSCC(=O)c1ccc(Br)cc1)c1ccc(Br)cc1
Histone deacetylase
  IC50: 135 nM

## CCCCCCCCCCCCCC(Oc1cccc(OCc2ccccc2)c1)C(=O)O (stereo unspecified)
[15]
  IC50: 6 µM

## C=C1C(=O)O[C@@H](CCC)[C@@H]1C(=O)O
CREB-binding protein
  IC50: 500 µM
[16]
  IC50: 100 µM

## O=C1NC(=S)NC(=O)C1=Cc1cc2ccccc2[nH]1
[17]
  IC50: 5.9 µM

## CCCCCCCCCCCCCCCc1cccc(O)c1C(=O)O [ANACARDIC ACID]
[18]
  IC50: 5 µM
[19]
  IC50: 8.5 µM

## NC1CC1c1c(F)cc(F)cc1OCc1ccccc1 (stereo unspecified)
[20]
  IC50: 990 nM
Homo sapiens [21]
  Ratio IC50: > 250
